The text below walks through data of publication PMC5537347, “A short D-enantiomeric antimicrobial peptide with potent immunomodulatory and antibiofilm activity against multidrug-resistant Pseudomonas aeruginosa and Acinetobacter baumannii” (Scientific Reports, 2017).

Converted amounts (≈) assume the structure as drawn. Read-outs that look alike come from different tables or passages of the source. Peptide text beside a SMILES is read from it. Some results are limits rather than exact numbers.

The subject of data set [1] is C. elegans strain glp-4;sek 1. The data set is described as follows: Toxicity of peptides in uninfected C. elegans. Particulars: worms grown four days with peptide; D-RR4 and colistin at 8 × MIC. Type of data set: in vivo, Caenorhabditis elegans. The method, then:
To test the efficacy of the synthetic peptides to protect against infections in vivo, we utilized a C. elegans model of bacterial infection. This model has been used extensively for early-stage evaluation of promising antimicrobials, [35], [36]. Initially, the lethal dose of D-RR4 against uninfected nematodes was determined.
(A) Evaluation of toxicity of peptides in Caenorhabditis elegans. C. elegans strain glp-4;sek 1 was grown for four days in the presence of peptides at different concentrations. Worms were monitored daily and the live worms were counted. Results are expressed as a Kaplan-Meier survival curve. (B) Evaluation of antimicrobial activity of peptides to reduce the bacterial CFU inside infected Caenorhabditis elegans. C. elegans strain glp-4; sek 1 were infected with P. aeruginosa PAO1, colistin-resistant P. aeruginosa 1109, or A. baumannii ATCC BAA-1605. […] After treatment, worms were lysed and bacteria were counted. One asterisk (*) indicates significant difference with the negative control. Two asterisks (**) indicates significant difference with the monotherapy treatment (P < 0.05). Results are expressed as means from three biological replicates ± standard deviation. (C) Efficacy of peptides in a Caenorhabditis elegans model of bacterial infection. […] Worms were monitored daily and the live worms were counted. Results are expressed as a Kaplan-Meier survival curve. C. elegans receiving no treatment served as a negative control.

The subject of data set [2] is murine macrophages (J774.1A). The data set is described as follows: Cytotoxicity, MTS assay. Particulars: 24 h. The method, then: (§1) A significant limitation for translating AMPs into clinical applications is their toxicity to host (mammalian) cells. Herein, we evaluated the cytotoxic effects of our peptide constructs against murine macrophages (J774.1A) and human keratinocytes (HaCaT cells), via the MTS assay.
(§2) The peptides were assayed for potential in vitro toxicity against human keratinocytes (HaCaT) and murine macrophage cells (J774A.1), as described before, with the following modifications. Cells were treated with peptides at different concentrations for 24 hours. The therapeutic index of the peptides was calculated as the ratio of mammalian EC50 (the concentration of peptide that inhibited growth of 50% of the mammalian cells) to the MIC50 of peptides against bacteria.
A general note: Tetrazolium dyes change colour on reduction, which living cells bring about.

Data set [3] concerns human keratinocytes (HaCaT cells). Description: Cytotoxicity, MTS assay. The following applies: 24 h. Here is the method:
as §1, §2

Data set [4] deals with colistin-resistant P. aeruginosa isolated from cystic fibrosis patients. Particulars: colistin-resistant isolated from cystic fibrosis patients. An excerpt:
(§3) The broth microdilution technique was utilized to assess the MIC of designed peptides according to the guidelines of the Clinical and Laboratory Standards Institute (CLSI)[37].

Data set [5] has as its system P. aeruginosa and A. baumannii isolates.
Excerpt: as §3

Data set [6] concerns human red blood cells. Description: Hemolysis assay. The format is cell-based. Particulars: for HC50: red cells of human. The method, then:
Next, we assessed the hemolytic activity of the peptides on human red blood cells (RBCs).
Peptides were assayed for hemolytic activity against human red blood cells, as described previously.

The test system of data set [7] is LPS-induced activation of the LAL enzyme (Limulus amoebocyte lysate). The data set is described as follows: Binding of peptides to lipopolysaccharide (LAL assay). Type of data set: biochemical. Particulars: one EU of LPS, 37 °C, 30 minutes. The method, then:
(§4) Figure 3 Ability of peptides to neutralize LPS and reduce inflammatory cytokines expression. (A) LPS binding activity of peptides. Peptides at different concentrations were incubated with one endotoxin unit (EU) of LPS at 37 °C for 30 minutes. […] The binding of peptides with LPS is expressed as percent change relative to the untreated samples. (B) Anti-inflammatory effect of peptides on LPS-stimulated macrophages. J774A.1 cells were stimulated with LPS (150 ng/mL final concentration) in the presence of different concentrations of peptides. Cells stimulated with LPS alone and untreated cells served as controls. Cells were incubated for six hours at 37 °C before the supernatant from each treatment group was collected. Detection of tumor necrosis factor-α (TNF-α) and interleukin-6 (IL-6) in supernatants was determined using ELISA. Cytokine levels are expressed as percent change relative to the LPS-stimulated control. Statistical analysis was calculated using one-way ANOVA, with post hoc Tukey’s multiple comparisons test. P < 0.05 was considered significant. One asterisk (*) indicates significant difference with the negative control.
To determine the peptides’ ability to bind to LPS, a Limulus amoebocyte lysate (LAL) kit (Genscript, USA Inc.) was utilized, as described in previous reports. The peptides were dissolved in pyrogen-free water and serially diluted in the same solvent. The peptides were then incubated with one endotoxin unit (EU) of LPS at 37 °C for 30 minutes in order to permit the peptides to bind LPS. The reaction mixture (50 μL) was added to 50 μL of LAL reagent, and further incubated for 10 minutes. Next, 100 μL of LAL chromogenic substrate was added. The mixture was incubated at 37 °C for six minutes. The optical density (at 545 nm) was determined using a microplate reader. Colistin was used as a positive control. The binding of peptides with LPS was expressed as the percent change relative to the untreated control.

The test system of data set [8] is TNF-α. Description: Anti-inflammatory effect on LPS-stimulated macrophages, ELISA. Type of data set: cell-based, murine. The following applies: J774A.1 cells, LPS 150 ng/mL, six hours. The method, then:
as §4
(§5) To assess the anti-inflammatory effect of our peptides on LPS-stimulated macrophages, J774A.1 cells were seeded and incubated as described above (for toxicity assessment). Next, the cells were stimulated with LPS (150 ng/ml final concentration) in the presence of different concentrations of peptides (RR and D-RR4). Cells stimulated with LPS alone and untreated cells served as controls. Cells were incubated for six hours at 37 °C and the supernatant from each treatment was collected and stored at −20 °C until use. Tumor necrosis factor-α (TNF-α) and interleukin-6 (IL-6) present in the supernatant was quantified using ELISA, as described previously. Cytokine levels were presented as the percent change relative to the LPS-stimulated control, using triplicate samples for each treatment condition.
For orientation: In an ELISA, binding on a coated surface is turned into a signal by an enzyme label.

Data set [9] deals with IL-6. The description is as above. Type of data set: cell-based, murine. The following applies: J774A.1 cells, LPS 150 ng/mL, six hours. Here is the method: as §4, §5
Data set [10] deals with P. aeruginosa PAO1 biofilm. Description: Disruption of established biofilms, microtiter dish crystal violet assay. The format is cell-based. The following applies: 32 × MIC, mature (24 hour) biofilm, 24 hours at 37 °C, crystal violet OD 595 nm. Here is the method:
Figure 1 Efficacy of peptides on established biofilms of P. aeruginosa PAO1 and A. baumannii ATCC BAA-1605. […] After incubation, wells were washed and biofilms were stained with 0.5% (w/v) crystal violet for 30 minutes. The dye was solubilized with ethanol (95%) and the optical density (595 nm) of the biofilm mass was measured. Experiments were repeated twice independently and the average values are reported.
To examine the peptides’ ability to disrupt bacterial biofilms, the microtiter dish biofilm formation assay was employed[41]–[43].

For the molecule `CC[C@H](C)[C@H](NC(=O)CN)C(=O)NCC(=O)N[C@@H](C)C(=O)N[C@H](C(=O)N[C@@H](CC(C)C)C(=O)N[C@@H](CCCCN)C(=O)N[C@H](C(=O)N[C@@H](CC(C)C)C(=O)N[C@H](C(=O)N[C@H](C(=O)NCC(=O)N[C@@H](CC(C)C)C(=O)N1CCC[C@H]1C(=O)N[C@@H](C)C(=O)N[C@@H](CC(C)C)C(=O)N[C@H](C(=O)N[C@@H](CO)C(=O)N[C@@H](Cc1c[nH]c2ccccc12)C(=O)N[C@H](C(=O)N[C@@H](CCCCN)C(=O)N[C@@H](CCCNC(=N)N)C(=O)N[C@@H](CCCCN)C(=O)N[C@@H](CCCNC(=N)N)C(=O)N[C@@H](CCC(N)=O)C(=O)N[C@@H](CCC(N)=O)C(N)=O)[C@@H](C)CC)[C@@H](C)CC)[C@@H](C)O)[C@@H](C)O)C(C)C)C(C)C` [Melittin], the “toxicity to uninfected worms” value in data set [1] was “completely killed C. elegans after 3 days”.

In general, EC50 refers to the concentration at which the effect is half-maximal. A word on the MIC: it is the lowest concentration that inhibits growth of the organism. Low readings indicate greater potency, high ones weaker potency. Broadly, the MIC50 is an inhibitory concentration at the 50% level, which refers to growth in some studies and to a panel of isolates in others. A higher MIC50 goes with weaker potency. The MIC90 is the lowest concentration that inhibits either 90% of growth or 90% of the strains tested, depending on the study. Higher therefore signals weaker potency. A word on the HC50: it is the concentration giving 50% haemolysis. Read a high HC50 as weaker haemolysis. Consider `CC[C@H](C)[C@H](NC(=O)[C@H](CCCCN)NC(=O)[C@H](CCCCN)NC(=O)[C@H](Cc1c[nH]c2ccccc12)NC(=O)[C@@H](NC(=O)[C@H](CCCCN)NC(=O)[C@@H](NC(=O)[C@H](CCCNC(=N)N)NC(=O)[C@H](CCCNC(=N)N)NC(=O)[C@H](CCCCN)NC(=O)[C@@H](N)Cc1c[nH]c2ccccc12)[C@@H](C)CC)[C@@H](C)CC)C(=O)N[C@@H](CCCNC(=N)N)C(=O)O` [RR1] (H-WKRRIKIWKKIR-OH; N-terminus and C-terminus assumed), for which the EC50 in data set [2] is listed as greater than 256 µM. This molecule yielded an EC50 in data set [3] greater than 256 µM. Also, in [4], the MIC is greater than 128 µM, the MIC50 is on record as greater than 128 µM and the MIC90 is on record as greater than 128 µM. In [5], the MIC90 is on record as greater than 256 µM and the “MIC against all tested bacterial strains” value is listed as greater than 256 µM. In addition, the MIC50 in [5] (MIC that inhibited growth of 50% of all isolates (Table 2)) was greater than 256 µM. Also, the 50% haemolytic concentration (HC50) in data set [6] is greater than 256 µM.

In data set [2], `CC[C@H](C)[C@H](NC(=O)[C@H](Cc1c[nH]c2ccccc12)NC(=O)[C@H](CCCCN)NC(=O)[C@H](CCCCN)NC(=O)[C@@H](NC(=O)[C@H](CCCNC(=N)N)NC(=O)[C@H](CCCNC(=N)N)NC(=O)[C@@H](NC(=O)[C@@H](N)Cc1c[nH]c2ccccc12)[C@@H](C)CC)[C@@H](C)CC)C(=O)N[C@@H](CCCNC(=N)N)C(=O)N[C@@H](CCCNC(=N)N)C(=O)N[C@H](C(=O)N[C@@H](Cc1c[nH]cn1)C(=O)N[C@@H](CCCCN)C(=O)O)C(C)C` [RR2] (H-WIRRIKKWIRRVHK-OH; N-terminus and C-terminus assumed) came in with a 50% effective concentration (EC50) of 128 µM. In addition, the EC50 in data set [3] amounted to 64 µM. In [4], the MIC50 was determined as 32 µM (≈ 63.2 µg/mL) and the MIC90 was found to be 32 µM (≈ 63.2 µg/mL). In data set [5], the MIC50 is recorded as 4 µM (≈ 7.9 µg/mL) and the MIC90 worked out at 8 µM (≈ 15.8 µg/mL). Besides, in data set [6], the “Therapeutic index (TI) RBCs” value was 64 and the HC50 was found to be 256 µM.

Consider `CC[C@H](C)[C@H](NC(=O)[C@H](CCCNC(=N)N)NC(=O)[C@H](CCCNC(=N)N)NC(=O)[C@H](CC(C)C)NC(=O)[C@@H](N)Cc1c[nH]c2ccccc12)C(=O)N[C@@H](CCCCN)C(=O)N[C@@H](C)C(=O)N[C@@H](Cc1c[nH]c2ccccc12)C(=O)N[C@@H](CC(C)C)C(=O)N[C@@H](CCCNC(=N)N)C(=O)N[C@@H](CCCNC(=N)N)C(=O)N[C@@H](CCCCN)C(=O)N[C@@H](CCCNC(=N)N)C(=O)N[C@@H](CCCCN)C(=O)O` [RR3] (H-WLRRIKAWLRRKRK-OH; N-terminus and C-terminus assumed), for which, in data set [2], the EC50 was found to be 128 µM. For the same molecule, in data set [3], the concentration for a half-maximal effect (EC50) is 128 µM. Further, in data set [4], the MIC50 stood at 16 µM (≈ 31.5 µg/mL) and the MIC90 was 32 µM (≈ 62.9 µg/mL). Also, in data set [5], the MIC50 is listed as 8 µM (≈ 15.7 µg/mL) and the MIC90 is 16 µM (≈ 31.5 µg/mL). Moreover, in [6], the “Therapeutic index (TI) RBCs” value is listed as 64 and the HC50 is on record as greater than 256 µM.

`CC[C@H](C)[C@H](NC(=O)[C@H](CCCNC(=N)N)NC(=O)[C@H](CCCNC(=N)N)NC(=O)[C@H](CC(C)C)NC(=O)[C@@H](N)Cc1c[nH]c2ccccc12)C(=O)N[C@@H](CCCCN)C(=O)N[C@@H](C)C(=O)N[C@@H](Cc1c[nH]c2ccccc12)C(=O)N[C@@H](CC(C)C)C(=O)N[C@@H](CCCNC(=N)N)C(=O)N[C@@H](CCCNC(=N)N)C(=O)O` [RR] (H-WLRRIKAWLRR-OH; N-terminus and C-terminus assumed): the “inhibition of LPS-induced activation of the LAL enzyme” value in [7] (5 µM peptide) is on record as 21.3%; in data set [7] (10 µM peptide), 43.2%; in [7] (15 µM peptide), 59.6%; in data set [7] (20 µM peptide) it was 82.4%. For the same molecule, the “decrease of TNF-α production” value in [8] (10 µM) stood at 24.4%; in data set [8] (20 µM), 84.0%. For the same molecule, the “decrease of IL-6 production” value was 75.4% in [9] (10 µM) and 96.5% in data set [9] (20 µM).

Molecule `CNC(C)C1CCC(N)C(OC2C(N)CC(N)C(OC3OCC(C)(O)C(NC)C3O)C2O)O1` (stereo not drawn) [gentamicin] registered a biofilm mass disrupted in [10] of 50%.

The molecule `NC[C@H]1O[C@H](O[C@H]2[C@H](O)[C@@H](O[C@H]3O[C@H](CO)[C@@H](O)[C@H](N)[C@H]3O)[C@H](N)C[C@@H]2N)[C@H](N)C[C@@H]1O` [tobramycin] yielded a biofilm mass disrupted in data set [10] of 50%.
